In one data set the target is T1, Cytochrome P450 1A2 (Homo sapiens, UniProt P05177).
T1 sequence (P05177 whole entry): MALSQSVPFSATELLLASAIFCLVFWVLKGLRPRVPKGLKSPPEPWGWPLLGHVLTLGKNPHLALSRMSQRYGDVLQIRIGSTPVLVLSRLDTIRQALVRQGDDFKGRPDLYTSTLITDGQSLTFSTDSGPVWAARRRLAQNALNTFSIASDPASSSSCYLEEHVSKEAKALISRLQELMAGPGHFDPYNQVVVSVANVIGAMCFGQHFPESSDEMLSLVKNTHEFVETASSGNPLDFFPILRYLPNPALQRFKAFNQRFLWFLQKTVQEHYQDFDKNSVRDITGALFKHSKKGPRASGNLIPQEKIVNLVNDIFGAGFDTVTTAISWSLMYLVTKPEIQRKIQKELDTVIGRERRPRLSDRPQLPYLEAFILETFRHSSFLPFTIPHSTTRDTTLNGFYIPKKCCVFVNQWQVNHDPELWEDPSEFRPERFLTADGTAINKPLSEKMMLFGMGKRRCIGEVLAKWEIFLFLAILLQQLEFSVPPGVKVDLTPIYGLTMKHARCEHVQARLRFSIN
As to the kind of experiment: Inhibition of CYP1A2 (unknown origin). The format is ADME.

In data set [1] the target is T2, 5-hydroxytryptamine receptor 3A (Homo sapiens, UniProt P46098).
T2 sequence (P46098 whole entry): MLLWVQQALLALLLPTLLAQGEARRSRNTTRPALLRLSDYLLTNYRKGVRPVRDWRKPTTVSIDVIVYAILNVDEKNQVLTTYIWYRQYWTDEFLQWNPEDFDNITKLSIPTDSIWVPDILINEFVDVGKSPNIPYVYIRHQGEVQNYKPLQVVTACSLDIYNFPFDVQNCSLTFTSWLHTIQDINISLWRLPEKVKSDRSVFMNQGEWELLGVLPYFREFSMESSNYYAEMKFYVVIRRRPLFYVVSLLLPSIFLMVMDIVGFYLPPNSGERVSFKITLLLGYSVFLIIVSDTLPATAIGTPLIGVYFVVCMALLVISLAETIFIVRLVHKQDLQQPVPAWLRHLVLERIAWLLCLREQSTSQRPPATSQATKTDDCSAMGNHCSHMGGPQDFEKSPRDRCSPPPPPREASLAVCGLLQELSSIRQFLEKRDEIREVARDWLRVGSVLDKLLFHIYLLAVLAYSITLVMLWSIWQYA
As to the kind of experiment: Displacement of [9-methyl-3H]BRL-43694 from human 5-HT3A receptor after overnight incubation by scintillation proximity assay. Background: In a scintillation proximity assay essentially only radioactivity close to the scintillant gives light.

The target in the next data set is Cytochrome P450 2C9 (Homo sapiens, UniProt P11712). As to the kind of experiment: Inhibition of CYP2C9 (unknown origin). The format is ADME.
A further data set concerns the target T3, Cytochrome P450 2B6 (Homo sapiens, UniProt P20813).
T3 sequence (P20813 whole entry): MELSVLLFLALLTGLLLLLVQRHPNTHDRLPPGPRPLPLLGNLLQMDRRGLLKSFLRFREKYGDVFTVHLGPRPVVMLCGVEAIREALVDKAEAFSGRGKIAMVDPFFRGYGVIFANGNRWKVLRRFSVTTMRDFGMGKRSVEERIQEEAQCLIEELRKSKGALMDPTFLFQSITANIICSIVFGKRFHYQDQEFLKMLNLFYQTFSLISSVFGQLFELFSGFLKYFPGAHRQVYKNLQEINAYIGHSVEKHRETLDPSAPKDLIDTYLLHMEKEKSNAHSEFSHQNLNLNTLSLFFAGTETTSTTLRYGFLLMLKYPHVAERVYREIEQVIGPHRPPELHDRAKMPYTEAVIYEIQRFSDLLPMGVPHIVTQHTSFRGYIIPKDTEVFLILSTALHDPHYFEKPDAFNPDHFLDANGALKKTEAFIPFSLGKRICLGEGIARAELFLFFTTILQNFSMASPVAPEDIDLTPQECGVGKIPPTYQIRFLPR
As to the kind of experiment: Inhibition of CYP2B6 (unknown origin). The format is ADME.

Data set [2] has as its target T2, 5-hydroxytryptamine receptor 3A. Nature of the data set: Agonist activity at human 5-HT3A receptor expressed in HEK293 cells in presence of carbachol. Format: cell-based.
A further data set addresses Cytochrome P450 3A4 (Homo sapiens, UniProt P08684). Nature of the data set: Inhibition of CYP3A4 (unknown origin). Format: ADME.
The target in the next data set is Cytochrome P450 2D6 (Homo sapiens, UniProt P10635). As to the kind of experiment: Inhibition of CYP2D6 (unknown origin). Format: ADME.
For the next data set, the target named is Cytochrome P450 2C19 (Homo sapiens, UniProt P33261). As to the kind of experiment: Inhibition of CYP2C19 (unknown origin). The format is ADME.
Data set [3] is described as follows: Intrinsic clearance in human liver microsomes. Format: ADME. As to conditions: read-out: CLH. For orientation: Liver microsomes are a subcellular fraction often used to study metabolism.
For data set [4], the target named is T4, 5-hydroxytryptamine receptor 3A (Homo sapiens) (UniProt P46098).
T4 sequence (whole entry): T2 sequence (P46098 whole entry)
Nature of the data set: Partial agonist activity at human 5-HT3A receptor expressed in HEK293 cells assessed as change in Ca2+ level measured as intrinsic activity at 1 uM relative to 5-HT in presence of carbachol. Format: cell-based.

In data set [5] the target is T5, 5-hydroxytryptamine receptor 3A (Mus musculus) (UniProt P23979).
T5 sequence (whole entry): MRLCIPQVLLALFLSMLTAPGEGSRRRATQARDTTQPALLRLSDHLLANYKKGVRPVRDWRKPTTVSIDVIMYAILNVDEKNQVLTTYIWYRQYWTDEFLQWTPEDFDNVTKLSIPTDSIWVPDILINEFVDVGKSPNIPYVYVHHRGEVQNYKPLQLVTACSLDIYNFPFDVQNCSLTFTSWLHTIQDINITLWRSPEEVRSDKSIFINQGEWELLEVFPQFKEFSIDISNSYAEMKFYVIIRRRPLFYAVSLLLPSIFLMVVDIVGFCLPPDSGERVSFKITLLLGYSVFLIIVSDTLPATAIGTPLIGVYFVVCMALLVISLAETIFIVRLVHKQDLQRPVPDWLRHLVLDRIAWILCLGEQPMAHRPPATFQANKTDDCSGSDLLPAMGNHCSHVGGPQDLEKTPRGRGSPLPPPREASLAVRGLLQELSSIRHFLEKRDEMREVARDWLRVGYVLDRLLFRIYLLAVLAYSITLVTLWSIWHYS
As to the kind of experiment: Partial agonist activity at mouse 5-HT3A receptor expressed in HEK293 cells assessed as change in Ca2+ level measured as intrinsic activity at 1 uM relative to 5-HT in presence of carbachol. Format: cell-based.

The target of data set [6] is T6, 5-hydroxytryptamine receptor 3A (Mus musculus, UniProt P23979).
T6 sequence (P23979 whole entry): T5 sequence (whole entry)
As to the kind of experiment: Agonist activity at mouse 5-HT3A receptor expressed in HEK293 cells in presence of carbachol. The format is cell-based.

Data set [7] relates to Mus musculus. As to the kind of experiment: Inhibition of 5-HT induced-bradycardia in ICR mouse von Bezold-Jarisch reflex model at 3 mg/kg, po after 60 mins relative to control. Format: functional. As to conditions: 1 h.
Data set [8] concerns Mus musculus. Nature of the data set: Inhibition of 5-HT induced-bradycardia in ICR mouse von Bezold-Jarisch reflex model at 1 mg/kg, po after 60 mins relative to control. Format: functional. The note with it: 1 h.

Sequence of Cytochrome P450 2C19 (P33261 whole entry): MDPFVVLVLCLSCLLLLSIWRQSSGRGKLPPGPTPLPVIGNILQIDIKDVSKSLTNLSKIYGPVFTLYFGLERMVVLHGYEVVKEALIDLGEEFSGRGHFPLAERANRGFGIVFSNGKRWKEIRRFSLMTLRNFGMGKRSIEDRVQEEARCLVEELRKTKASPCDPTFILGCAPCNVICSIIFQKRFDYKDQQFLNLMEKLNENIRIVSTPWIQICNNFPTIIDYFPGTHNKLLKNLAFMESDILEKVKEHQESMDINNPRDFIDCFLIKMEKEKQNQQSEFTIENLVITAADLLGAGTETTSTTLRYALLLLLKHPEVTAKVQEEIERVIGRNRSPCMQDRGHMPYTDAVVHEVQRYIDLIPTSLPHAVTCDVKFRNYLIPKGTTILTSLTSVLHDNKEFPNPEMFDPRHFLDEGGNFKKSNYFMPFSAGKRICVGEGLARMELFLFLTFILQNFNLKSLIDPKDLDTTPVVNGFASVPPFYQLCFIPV
Sequence of Cytochrome P450 2C9 (P11712 whole entry): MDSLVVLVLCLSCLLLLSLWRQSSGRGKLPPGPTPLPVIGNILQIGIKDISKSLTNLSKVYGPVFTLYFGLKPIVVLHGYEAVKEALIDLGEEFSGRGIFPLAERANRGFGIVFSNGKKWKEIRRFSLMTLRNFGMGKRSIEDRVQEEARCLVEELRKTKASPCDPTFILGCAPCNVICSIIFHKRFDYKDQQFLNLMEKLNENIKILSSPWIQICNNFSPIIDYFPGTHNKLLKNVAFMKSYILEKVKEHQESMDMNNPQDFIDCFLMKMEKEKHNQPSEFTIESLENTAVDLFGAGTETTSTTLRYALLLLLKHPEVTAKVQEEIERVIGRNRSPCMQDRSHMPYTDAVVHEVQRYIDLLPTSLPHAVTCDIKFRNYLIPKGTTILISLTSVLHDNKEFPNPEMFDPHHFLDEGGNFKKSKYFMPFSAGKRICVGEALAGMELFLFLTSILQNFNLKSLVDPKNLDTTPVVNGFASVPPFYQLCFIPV
Sequence of Cytochrome P450 3A4 (P08684 whole entry): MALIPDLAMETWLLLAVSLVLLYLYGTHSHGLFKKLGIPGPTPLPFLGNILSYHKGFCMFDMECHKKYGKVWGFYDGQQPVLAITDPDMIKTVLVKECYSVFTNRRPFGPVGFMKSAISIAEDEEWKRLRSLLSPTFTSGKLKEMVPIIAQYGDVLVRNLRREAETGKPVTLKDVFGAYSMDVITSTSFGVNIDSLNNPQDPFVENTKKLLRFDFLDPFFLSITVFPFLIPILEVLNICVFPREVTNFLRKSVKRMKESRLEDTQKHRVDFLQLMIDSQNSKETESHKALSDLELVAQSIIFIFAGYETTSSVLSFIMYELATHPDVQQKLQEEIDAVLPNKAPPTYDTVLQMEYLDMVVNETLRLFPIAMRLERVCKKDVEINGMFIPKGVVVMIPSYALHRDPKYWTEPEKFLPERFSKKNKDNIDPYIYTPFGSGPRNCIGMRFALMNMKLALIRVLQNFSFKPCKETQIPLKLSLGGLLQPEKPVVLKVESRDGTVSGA
Sequence of Cytochrome P450 2D6 (P10635 whole entry): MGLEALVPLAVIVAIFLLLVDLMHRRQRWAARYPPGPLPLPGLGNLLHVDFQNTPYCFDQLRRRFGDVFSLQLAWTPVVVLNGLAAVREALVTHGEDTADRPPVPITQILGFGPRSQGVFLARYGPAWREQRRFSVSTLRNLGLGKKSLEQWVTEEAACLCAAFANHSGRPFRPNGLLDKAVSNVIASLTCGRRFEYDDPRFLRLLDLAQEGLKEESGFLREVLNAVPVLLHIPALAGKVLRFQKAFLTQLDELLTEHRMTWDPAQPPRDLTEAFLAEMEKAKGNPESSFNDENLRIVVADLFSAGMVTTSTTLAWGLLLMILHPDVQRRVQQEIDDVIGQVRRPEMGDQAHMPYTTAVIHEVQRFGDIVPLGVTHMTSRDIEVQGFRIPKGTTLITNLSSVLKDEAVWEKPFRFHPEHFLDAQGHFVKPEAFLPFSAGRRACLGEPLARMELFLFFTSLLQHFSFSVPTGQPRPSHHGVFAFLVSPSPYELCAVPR

Regarding `COc1cc2c3c(cnn3CCN([C@@H]3CN4CCC3CC4)C2=O)c1`, the IC50 at Cytochrome P450 1A2, at Cytochrome P450 2C9, at Cytochrome P450 2B6, at Cytochrome P450 3A4, against Cytochrome P450 2D6 and against Cytochrome P450 2C19 was greater than 50 µM each time. The Ki in data set [1] was 0.0135 µM. Further, the EC50 in data set [2] and in data set [6] was 0.178 µM throughout. The microsomal CLint in [3] stood at 1.8 µL/min/mg. The Activity in data set [4] was 87%; in [5] it was 81%.

Turning to `O=C1c2cccc3ccn(c23)CCN1[C@H]1CN2CCC1CC2`, the Ki in [1] was 0.0676 µM.

On to `O=C1c2cccc3[nH]c(=O)n(c23)CCN1[C@@H]1CN2CCC1CC2`, for which the half-inhibitory concentration (IC50) on Cytochrome P450 1A2, against Cytochrome P450 2C9, against Cytochrome P450 2B6, against Cytochrome P450 3A4, at Cytochrome P450 2D6 and on Cytochrome P450 2C19 was greater than 50 µM each time. Also, the Ki in data set [1] came to 0.0057 µM. Also, the EC50 in data set [2] is 0.178 µM. Moreover, the microsomal CLint in data set [3] is 8.4 µL/min/mg. In data set [4], the Activity came to 83%.

As to `O=C1c2cc(Cl)cc3cnn(c23)CCN1[C@@H]1CN2CCC1CC2`, the IC50 against Cytochrome P450 1A2, on Cytochrome P450 2C9, against Cytochrome P450 2B6, against Cytochrome P450 3A4, on Cytochrome P450 2D6 and against Cytochrome P450 2C19 was greater than 50 µM throughout. Besides, the EC50 in data set [2] and in [6] was 0.178 µM in each case. In data set [3], the microsomal CLint was found to be 3.1 µL/min/mg. The Activity in data set [4] is 28%; in [5], 27%.

The molecule `Cc1cn2c3c(cc(Cl)cc13)C(=O)N([C@@H]1CN3CCC1CC3)CC2` gave an IC50 against Cytochrome P450 1A2 of 8.8 µM. Besides, the microsomal CLint in [3] was determined as 2.3 µL/min/mg.

For the molecule `O=C1c2cccc3cnn(c23)CCN1[C@@H]1CN2CCC1CC2`, the IC50 against Cytochrome P450 1A2, against Cytochrome P450 2C9, against Cytochrome P450 2B6, against Cytochrome P450 3A4, at Cytochrome P450 2D6 and at Cytochrome P450 2C19 was greater than 50 µM in each case. In the data set on Mus musculus [7], the inhibition in vivo at 3 mg/kg was 77%. Also, the Ki in data set [1] was found to be 0.0081 µM. Moreover, the EC50 in data set [2] and in [6] was 0.178 µM in each case. Also, the microsomal CLint in data set [3] is less than 1.7 µL/min/mg. Further, the Activity in data set [4] turned out to be 19%; in data set [5] it was 16%.

On to `O=C1c2cc(F)cc3cnn(c23)CCN1[C@@H]1CN2CCC1CC2`, for which the IC50 against Cytochrome P450 1A2, at Cytochrome P450 2C9, at Cytochrome P450 2B6, against Cytochrome P450 3A4, on Cytochrome P450 2D6 and against Cytochrome P450 2C19 was greater than 50 µM throughout. Moreover, affinity in data set [1] was put at a Ki of 0.0064 µM. Moreover, the EC50 in [2] and in data set [6] was 0.178 µM each time. Further, the microsomal CLint in [3] is 8.8 µL/min/mg. For the same molecule, the Activity in data set [4] is 30%; in data set [5] it was 31%.

On to `Cc1[nH]cnc1CN1CCc2c(c3ccccc3n2C)C1=O` [ALOSETRON], for which the microsomal CLint in data set [3] was determined as 3 µL/min/mg. Also, the inhibition in vivo at 1 mg/kg in the data set with Mus musculus [8] is 95%.

Molecule `Cc1cc2c3c(cnn3CCN([C@@H]3CN4CCC3CC4)C2=O)c1` came in with a Ki in [1] of 0.0008 µM.

On to `O=C1c2cccc3ccn(c23)CCN1[C@@H]1CN2CCC1CC2`, for which the IC50 against Cytochrome P450 1A2, against Cytochrome P450 2C9, against Cytochrome P450 2B6, against Cytochrome P450 3A4, at Cytochrome P450 2D6 and against Cytochrome P450 2C19 was greater than 50 µM in each case. The molecule also returned a Ki in [1] of 0.0031 µM. Moreover, the EC50 in data set [2] was 0.178 µM. Besides, the microsomal CLint in data set [3] was less than 1.7 µL/min/mg. For the same molecule, in data set [4], the Activity came out at 7%.

By IC50 is commonly meant the concentration at which inhibition is half-maximal. Usually Ki stands for the dissociation constant of the complex between target and ligand, obtained from inhibition or displacement. For orientation: EC50 means the concentration giving half of the maximal effect. By inhibition in vivo is commonly meant the change of the read-out against control, counted positive when it falls. A high value points to a strong effect.

These data come from ChEMBL document CHEMBL3259590, “The discovery of diazepinone-based 5-HT3 receptor partial agonists” (Bioorg Med Chem Lett, 2014).
